Here are results for one molecule from publication PMC2882941 (Pharmaceutical research, 2009).

This data set concerns the target T1, hASBT (Homo sapiens, UniProt Q12908).
T1 sequence (Q12908 1-348): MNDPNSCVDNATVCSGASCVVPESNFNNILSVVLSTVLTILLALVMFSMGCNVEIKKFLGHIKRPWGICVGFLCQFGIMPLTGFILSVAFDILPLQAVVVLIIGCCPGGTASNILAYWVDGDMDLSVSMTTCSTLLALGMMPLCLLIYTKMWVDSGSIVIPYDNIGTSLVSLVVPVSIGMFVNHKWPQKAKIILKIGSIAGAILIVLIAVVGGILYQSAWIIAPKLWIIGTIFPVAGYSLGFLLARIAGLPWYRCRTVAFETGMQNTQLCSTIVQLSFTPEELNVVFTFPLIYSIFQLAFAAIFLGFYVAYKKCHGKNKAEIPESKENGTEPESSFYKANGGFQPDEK
Nature of the data set: in vitro. As to conditions: MDCK.

As to `C[C@H](CCC(=O)NCCS(=O)(=O)O)[C@H]1CC[C@H]2[C@@H]3[C@H](O)C[C@@H]4C[C@H](O)CC[C@]4(C)[C@H]3C[C@H](O)[C@]12C` [TCA, Taurocholate], the Papp (commonly a coefficient for how fast a substance crosses the barrier) is 0.089 to 0.3 ×10⁻⁶ cm/s.
